# Measured values taken from patent US20060122175A1, “Benzdioxane piperazine derivatives with a combination of affinity for dopamine-D2 receptors and serotonin reuptake sites” (SOLVAY PHARMACEUTICALS B.V., priority 2004, published 2006).
# Where a name gives a salt, the structure may show the parent alone.
# Columns and labels:
# dopamine-D2 receptors = target: T1, dopamine-D2 receptors (Rattus norvegicus, UniProt P61169); test: In vitro affinity for dopamine-D2 receptors ([3H]-spiroperidol receptor binding assay); conditions: average values from three independent experiments
# T1 construct: labels dopamine receptors in rat pituitary and brain; from tissue; host or cells: rat pituitary and brain (per the title of the cited method)
# Procedure: The affinity of the compounds of the invention for dopamine-D2 receptors and serotonine reuptake sites was determined as described above. […] Pharmacokinetic, pharmacodynamic, and other considerations may alter the dose actually administered to a higher or lower value. The dosage expediently administered is 0.001-1000 mg/kg, preferably 0.1-100 mg/kg of patient's bodyweight.
# (§1) The results in the table below were obtained according to the methods described above. Binding data are average values from three independent experiments.
# serotonin reuptake = test: Potentiation of 5-HTP induced behaviour in mice; conditions: Mus musculus, po, read-out: in vivo activity 5-HT reuptake 5-HTP** ED50 mg/kg po
# Text: The compounds show activity as antagonists at dopamine D2 receptors as they potentially antagonize apomorphine-induced climbing behaviour in mice (B. Costall et al., ‘Climbing behaviour induced by apomorphine in mice: a potential model for the detection of neuroleptic activity’, Eur. J. Pharmacol., 1978, 1, 39-50). The compounds also show activity as inhibitors of serotonin reuptake, as they potentiate 5-HTP induced behaviour in mice (B. L. Jacobs., ‘An animal behaviour model for studying central serotonergic synapses’, Life Sci., 1976, 19(6), 777-785). The compounds are active in therapeutic models sensitive to clinically relevant antipsychotics (e.g. the conditioned avoidance response; Van der Heyden & Bradford, Behav. Brain Res., 1988, 31:61-67) and antidepressants or anxiolytics (e.g. suppression of stress-induced vocalization; van der Poel et al., Psychopharmacology, 1989, 97: 147-148). In contrast to clinically relevant dopamine D2 receptor antagonists the described compounds have a low propensity to induce catalepsy in rodents and as such are likely to induce less extrapyramidal side effects than existing antipsychotic agents. The inhibitory activity of serotonin reuptake inherent in these compounds may be responsible for the therapeutic effects observed in behavioural models sensitive to either antidepressants or anxiolytics. The compounds can be used for the treatment of affections or diseases of the central nervous system caused by disturbances in either the dopaminergic or serotonergic systems, for example: aggression, anxiety disorders, autism, vertigo, depression, disturbances of cognition or memory, Parkinson's disease, and in particular schizophrenia and other psychotic disorders.
# dopamine D2 receptors = test: Antagonism of apomorphine-induced climbing behaviour in mice (APO-climb); conditions: Mus musculus, po, read-out: in vivo activity Dopamine-D2 APO-climb* ED50 mg/kg po
# serotonin reuptake sites = target: T2, serotonin reuptake sites (Rattus norvegicus, UniProt P31652); test: In vitro affinity for serotonin reuptake sites ([3H]-paroxetine receptor binding assay); conditions: average values from three independent experiments; read-out: in vitro affinity 5-HT reuptake binding Ki
# T2 construct: from tissue; host or cells: rat cortical membranes (per the title of the cited method)
# Procedure: The affinity of the compounds of the invention for dopamine-D2 receptors and serotonine reuptake sites was determined as described above. From the binding affinity measured for a given compound of formula (1), one can estimate a theoretical lowest effective dose. […] Converting that concentration to mg of compound per kg of patient yields a theoretical lowest effective dose, assuming ideal bioavailability. Pharmacokinetic, pharmacodynamic, and other considerations may alter the dose actually administered to a higher or lower value. The dosage expediently administered is 0.001-1000 mg/kg, preferably 0.1-100 mg/kg of patient's bodyweight.
# as §1
# T1 sequence (P61169 whole entry): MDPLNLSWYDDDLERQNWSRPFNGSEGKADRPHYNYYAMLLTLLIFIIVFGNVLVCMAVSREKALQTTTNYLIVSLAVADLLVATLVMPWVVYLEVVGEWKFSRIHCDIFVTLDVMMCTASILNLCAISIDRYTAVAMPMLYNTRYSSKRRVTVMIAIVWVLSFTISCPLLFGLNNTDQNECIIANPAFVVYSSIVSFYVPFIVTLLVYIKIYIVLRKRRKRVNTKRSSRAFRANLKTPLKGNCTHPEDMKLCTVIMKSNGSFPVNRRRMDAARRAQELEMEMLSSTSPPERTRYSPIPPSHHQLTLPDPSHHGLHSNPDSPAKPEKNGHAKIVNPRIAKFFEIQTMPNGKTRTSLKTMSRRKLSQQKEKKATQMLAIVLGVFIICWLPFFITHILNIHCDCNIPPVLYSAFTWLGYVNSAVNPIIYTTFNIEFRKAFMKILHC
# T2 sequence (P31652 whole entry): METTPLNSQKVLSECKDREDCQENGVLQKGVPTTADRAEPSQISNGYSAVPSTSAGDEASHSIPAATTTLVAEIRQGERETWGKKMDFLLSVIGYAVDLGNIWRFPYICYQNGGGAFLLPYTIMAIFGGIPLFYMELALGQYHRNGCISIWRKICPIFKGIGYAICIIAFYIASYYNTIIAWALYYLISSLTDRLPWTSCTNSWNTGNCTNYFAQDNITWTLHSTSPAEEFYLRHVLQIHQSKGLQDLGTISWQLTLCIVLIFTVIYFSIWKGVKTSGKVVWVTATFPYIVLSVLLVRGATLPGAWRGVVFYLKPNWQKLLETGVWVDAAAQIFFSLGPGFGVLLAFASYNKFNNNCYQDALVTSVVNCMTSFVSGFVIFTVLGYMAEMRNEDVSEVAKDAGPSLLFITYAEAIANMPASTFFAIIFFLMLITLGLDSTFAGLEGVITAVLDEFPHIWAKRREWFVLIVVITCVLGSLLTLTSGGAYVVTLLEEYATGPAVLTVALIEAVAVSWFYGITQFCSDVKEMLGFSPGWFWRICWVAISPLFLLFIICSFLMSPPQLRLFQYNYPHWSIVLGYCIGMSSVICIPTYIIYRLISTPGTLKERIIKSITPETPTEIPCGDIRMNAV
Compound,melting point,Ki (dopamine-D2 receptors),ED50 (serotonin reuptake),other results
"c1cc2c(c(N3CCN(CCCCCc4c[nH]c5ccccc45)CC3)c1)OCCO2 [Compound 5c, 3-{5-[4-(2,3-Dihydro-benzo[1,4]dioxin-5-yl)-piperazin-1-yl]-pentyl}-1H-indole]",–,9.1 ± 1.8 nM,–,–
"Fc1ccc2[nH]cc(CCCN3CCN(c4cccc5c4OCCO5)CC3)c2c1 [Compound 5e, 3-{3-[4-(2,3-Dihydro-benzo[1,4]dioxin-5-yl)-piperazin-1-yl]-propyl}-5-fluoro-1H-indole]",–,19 ± 3 nM,2 mg/kg,–
"Fc1ccc2c(CCCN3CCN(c4cccc5c4OCCO5)CC3)c[nH]c2c1 [Compound 5f, 3-{3-[4-(2,3-Dihydro-benzo[1,4]dioxin-5-yl)-piperazin-1-yl]-propyl}-6-fluoro-1H-indole]",–,–,30 mg/kg,ED50 (dopamine D2 receptors): 9 mg/kg
"Fc1cccc2c(CCCN3CCN(c4cccc5c4OCCO5)CC3)c[nH]c12 [Compound 5g, 3-{3-[4-(2,3-Dihydro-benzo[1,4]dioxin-5-yl)-piperazin-1-yl]-propyl}-7-fluoro-1H-indole]",–,10.6 ± 4 nM,28.4 mg/kg,–
"Clc1cccc2[nH]cc(CCCN3CCN(c4cccc5c4OCCO5)CC3)c12 [Compound 5i, 3-{3-[4-(2,3-Dihydro-benzo[1,4]dioxin-5-yl)-piperazin-1-yl]-propyl}-4-chloro-1H-indole]",–,24 ± 3 nM,–,–
"Clc1ccc2[nH]cc(CCCN3CCN(c4cccc5c4OCCO5)CC3)c2c1 [Compound 5j, 3-{3-[4-(2,3-Dihydro-benzo[1,4]dioxin-5-yl)-piperazin-1-yl]-propyl}-5-chloro-1H-indole]",–,31.6 ± 16 nM,–,Ki (serotonin reuptake sites): 1.4 ± 0.7 nM
"Clc1cccc2c(CCCN3CCN(c4cccc5c4OCCO5)CC3)c[nH]c12 [Compound 5l, 3-{3-[4-(2,3-Dihydro-benzo[1,4]dioxin-5-yl)-piperazin-1-yl]-propyl}-7-chloro-1H-indole]",–,15.5 ± 5.4 nM,–,–
"Cc1ccc2[nH]cc(CCCN3CCN(c4cccc5c4OCCO5)CC3)c2c1 [Compound 5m, 3-{3-[4-(2,3-Dihydro-benzo[1,4]dioxin-5-yl)-piperazin-1-yl]-propyl}-5-methyl-1H-indole]",–,–,–,Ki (serotonin reuptake sites): 1.3 ± 0.9 nM
"Cc1cccc2c(CCCN3CCN(c4cccc5c4OCCO5)CC3)c[nH]c12 [Compound 5n, 3-{3-[4-(2,3-Dihydro-benzo[1,4]dioxin-5-yl)-piperazin-1-yl]-propyl}-7-methyl-1H-indole]",–,15.9 ± 4.7 nM,–,–
"c1cc2c(c(N3CCN(CCCc4c[nH]c5ccccc45)CC3)c1)CCCO2 [Compound 14, 3-[3-(4-chroman-5-yl-piperazine-1-yl)-propyl]-1H-indole]",–,20.3 ± 2.7 nM,–,–

# More lines, main results first:
melting point,Ki (dopamine-D2 receptors),Compound,ED50 (serotonin reuptake),other results
205 to 206 °C,–,"Fc1ccc2c(CCCN3CCN(c4cccc5c4OCCO5)CC3)c[nH]c2c1 (as salt: fumaric acid salt) [Compound 5f, 3-{3-[4-(2,3-Dihydro-benzo[1,4]dioxin-5-yl)-piperazin-1-yl]-propyl}-6-fluoro-1H-indole]",–,–
61 to 63 °C,–,"Clc1ccc2[nH]cc(CCCN3CCN(c4cccc5c4OCCO5)CC3)c2c1 (as salt: fumaric acid salt) [Compound 5j, 3-{3-[4-(2,3-Dihydro-benzo[1,4]dioxin-5-yl)-piperazin-1-yl]-propyl}-5-chloro-1H-indole]",–,–
215 to 217 °C (dec.),–,"Cc1ccc2[nH]cc(CCCN3CCN(c4cccc5c4OCCO5)CC3)c2c1 (as salt: fumaric acid salt) [Compound 5m, 3-{3-[4-(2,3-Dihydro-benzo[1,4]dioxin-5-yl)-piperazin-1-yl]-propyl}-5-methyl-1H-indole]",–,–
85 to 86 °C,–,"c1cc2c(c(N3CCN(Cc4c[nH]c5ccccc45)CC3)c1)OCCO2 [Compound 5a, 3-[4-(2,3-Dihydro-benzo[1,4]dioxin-5-yl)-piperazin-1-yl-methyl]-1H-indole]",–,–
150 to 152 °C,21 ± 9.9 nM,"c1cc2c(c(N3CCN(CCCc4c[nH]c5ccccc45)CC3)c1)OCCO2 [Compound 5b, 3-{3-[4-(2,3-Dihydro-benzo[1,4]dioxin-5-yl)-piperazin-1-yl]-propyl}-1H-indole]",22 mg/kg,ED50 (dopamine D2 receptors): 10 mg/kg
207 to 208 °C,8.1 ± 3.1 nM,"Fc1cccc2[nH]cc(CCCN3CCN(c4cccc5c4OCCO5)CC3)c12 [Compound 5d, 3-{3-[4-(2,3-Dihydro-benzo[1,4]dioxin-5-yl)-piperazin-1-yl]-propyl}-4-fluoro-1H-indole]",32 mg/kg,ED50 (dopamine D2 receptors): 13 mg/kg
–,5 ± 4 nM,"COc1ccc2[nH]cc(CCCN3CCN(c4cccc5c4OCCO5)CC3)c2c1 [Compound 5h, 3-{3-[4-(2,3-Dihydro-benzo[1,4]dioxin-5-yl)-piperazin-1-yl]-propyl}-5-methoxy-1H-indole]",–,–
–,2.1 ± 1 nM,"Clc1ccc2c(CCCN3CCN(c4cccc5c4OCCO5)CC3)c[nH]c2c1 [Compound 5k, 3-{3-[4-(2,3-Dihydro-benzo[1,4]dioxin-5-yl)-piperazin-1-yl]-propyl}-6-chloro-1H-indole]",86 mg/kg,ED50 (dopamine D2 receptors): 4.5 mg/kg
